Assay results reported in patent US20080279812A1, “Disease Prevention and Vaccination Prior to Thymic Reactivation” (Norwood Immunology, Ltd., priority 2003, published 2008).
Where a SMILES comes first, the peptide text is derived from it. [ ]: non-standard residue; d: D form. dPhe(4-Cl) = N[C@H](Cc1ccc(Cl)cc1)C(=O)O; d2Nal = N[C@H](Cc1ccc2ccccc2c1)C(=O)O; Lys(iPr) = CC(C)NCCCC[C@H](N)C(=O)O; NMeY = CN[C@@H](Cc1ccc(O)cc1)C(=O)O; d3Pal = N[C@H](Cc1cccnc1)C(=O)O

How the values were obtained:
sex steroids [1] = details: single injection of sufficient dose; cited from earlier work
thymic cellularity = test: IL-7 administration with or without castration in allogeneic HSCT recipients, thymic cellularity; assay type: in vivo, mice
From the text: Mice and HSCT. Male C57BL/6J (B6, H-2b), C3FeB6F1/J([B6 3 C3H]F1; H-2b/k), B10.BR (H-2k), B6D2F1/J (H-2b/d), CBA/J (H-2k), Balb/c (H2-d), IL7−/− and KGF−/− mice were obtained from the Jackson Laboratory (Bar Harbor, Me.) and used in experiments when they were between 8 and 12 weeks of age. KGF−/− and IL7−/− were used between 4 and 7 months of age. HSCT protocols were approved by the Memorial Sloan-Kettering Cancer Center Institutional Animal Care and Use Committee. The BM cells were removed aseptically from femurs and tibias. Donor BM was depleted of T cells by incubation with anti-Thy-1.2 for 30 mins. at 4° C. followed by incubation with Low-TOX-M rabbit complement (Cedarlane Laboratories, Hornby, ON, Canada) for 1 hour at 37° C. Splenic T cells (for GVHD analysis) were obtained by purification over a nylon wool column followed by red cell removal with ammonium chloride red cell lysis buffer. Cells (5×10^6 BM cells with or without splenic T cells and leukemia cells) were resuspended in Dulbecco modified essential medium (Life Technologies, Grand Island, N.Y.) and transplanted by tail vein infusion (0.25 mL total volume) into lethally irradiated recipients on day 0. Prior to transplantation, on day 0, recipients received 1300 cGy total body irradiation (^137Cs source) as split dose with 3 hours between doses (to reduce gastrointestinal toxicity). Mice were housed in sterilized microisolator cages and received normal chow and autoclaved hyperchlorinated drinking water (pH 3.0).
Administration of IL-7. IL-7 were either given from days 0 to 13 or 21 to 27 intraperitoneally at 10 μg/day for immune reconstitution studies. PBS was injected into control mice at the same time-points.
Flow Cytometric Analysis. BM cells, splenocytes or thymocytes were washed in FACS buffer (phosphate buffered saline (PBS)/2% bovine serum albumin (BSA)/0.1% azide) and 1-3×10^6 cells were incubated for 30 mins. at 4° C. with CD16/CD32 FcR block. Cells were then incubated for 30 mins. at 4° C. with primary antibodies and washed twice with FACS buffer. Where necessary, cells were incubated with conjugated Streptavidin for a further 30 mins. at 4° C. The stained cells were resuspended in FACS buffer and analyzed on a FACSCalibur™ flow cytometer (Becton Dickinson, San Jose, Calif.) with CellQuest™ software.

[2] = test system: IL-7-dependent murine pre-B cell line 2E8; test: Thymidine incorporation proliferation assay with IL-7-dependent pre-B cell line; assay type: cell-based; details: 2E8 cell line
Method: Tissue culture medium consisted of RPMI 1640 supplemented with 10% heat inactivated fetal calf serum, 100 U/mL penicillin, […] streptomycin, and 2 mM L-glutamine (as well as […] 2-mercaptoethanol for the culture of 32Dp210 cells and proliferation assays).

[3] = test system: H1N1 strains of Influenza; assay type: in vivo, human; details: patients in all groups, after influenza vaccination
[4] = GnRH agonist in metastatic prostate cancer, haemopoiesis and neutrophil count (Example 28); assay type: in vivo, human; details: within the first 14 days of therapy
Method: All patients also received an anti-androgen drug. Cosudex® may also be given (5 mg/day or 50 mg/day orally) for 1 month. All patients undergo a Full Blood Analysis (FBA) prior to the commencement of therapy. FBA involves standard pathology analysis of lymphocytes, white blood cells, hematocrit and red blood cell content. In addition, analysis of immunological parameters including T cell stimulation, cytokine production, immune cell subsets and TREC analysis are performed. Additionally, blood samples from each patient are drawn at days −2, 0, 1, 2, 3, 7, 10, 14, 21, and 28, and monthly thereafter for 6 months. The blood samples are then evaluated for WBC, neutrophils, T cells (by FACS analysis, as described in detail above), granulocytes levels, and hematocrit, using the methods described in detail elsewhere herein, as well as methods well known to those skilled in the art.

[5] = G-CSF with or without Lupron in small cell lung cancer patients on chemotherapy (Example 26); assay type: in vivo, human
sex steroids [6] = details: 30 mg injection; cited from earlier work
[7] = GnRH analog before allogeneic BMT (Example 27); assay type: in vivo, human
Method: In a randomized unblinded study 20 patients are treated with a GnRH analog prior to receiving a BMT. This patient group is to a control group (n=19) who also undergo a BMT, but will not receive a GnRH analog.
All patients receive an allogeneic graft from a matched donor in accordance with accepted medical techniques (Lincz et al., (2001) Leuk. and Lymph. 40: 373).
Prior to transplant, the BM from all patients is ablated using standard ablating drugs and techniques (Segeren et al., (1999). Br. J. Haem. 105:127-130).
Blood samples from each patient are drawn at days −21, −2, 0, 1, 2, 3, 7, 10, 14 and 21. The blood samples are then evaluated for WBC, neutrophils, T cells (by FACS analysis, as described in detail above), granulocytes levels, and hematocrit, using the methods described in detail elsewhere herein, as well as methods well known to those skilled in the art.
Additionally, all patients are monitored for infection rates (including viral infection), the use of antibiotics, febrile neutropenia, and mean days of severe neutropenia (ANC<0.5×10^9/L). These analyses are performed as outlined above, with the patients being followed up at 1 month, 3 months, 6 months and 9 months from the date of transplant.

[8] = test system: thymus, spleen and lymph node cell numbers; test: Chemical castration compared to surgical castration, T cell regeneration after cyclophosphamide; assay type: in vivo; details: mice
From the text: FIG. 9: Changes in thymus (open bars), spleen (gray bars) and lymph node (black bars) cell numbers following treatment with cyclophosphamide, a chemotherapy agent, and surgical or chemical castration performed on the same day. Note the rapid expansion of the thymus in castrated animals when compared to the non-castrate (cyclophosphamide alone) group at 1 and 2 weeks post-treatment. In addition, spleen and lymph node numbers of the castrate group were well increased compared to the cyclophosphamide alone group. (n=34 per treatment group and time-point).
T cell Depletion Using Cyclophosphamide. Old mice (e.g., 2 years old) were injected with cyclophosphamide (200 mg/kg body wt over two days) and castrated.
FIG. 9 illustrates the use of chemical castration compared to surgical castration in enhancement of T cell regeneration. […] The enhancing effects were equivalent on thymic expansion and also the recovery of spleen and lymph node. The kinetics of chemical castration are slower than surgical, that is, mice take about 3 weeks longer to decrease their circulating sex steroid levels. However, chemical castration is still as effective as surgical castration and can be considered to have an equivalent effect.

[9] = cited from earlier work

For `CC(=O)N[C@H](Cc1ccc2ccccc2c1)C(=O)N[C@H](Cc1ccc(Cl)cc1)C(=O)N[C@H](Cc1cccnc1)C(=O)N[C@@H](CO)C(=O)N(C)[C@@H](Cc1ccc(O)cc1)C(=O)N[C@H](CC(N)=O)C(=O)N[C@@H](CC(C)C)C(=O)N[C@@H](CCCCNC(C)C)C(=O)N1CCC[C@H]1C(=O)N[C@H](C)C(N)=O` [Abarelix, abarelix] (Ac-[d2Nal][dPhe(4-Cl)][d3Pal]S[NMeY][dN]L[Lys(iPr)]P[dA]-NH2), the time to castration (sex steroids [1]) is listed as 5 to 8 days.

For “IL-7: Recombinant human IL-7 provided by Cytheris”, the “thymic cellularity, combined castration and IL-7 versus castrated group” value (thymic cellularity; day 14 after allo-HSCT) was “no significant difference”, the “thymic cellularity, combined castration and IL-7 versus control” value (thymic cellularity; day 14 after allo-HSCT) was “significantly more cells” and the “thymic cellularity, IL-7 treated sham-castrated versus PBS treated sham-castrated” value (thymic cellularity; day 14 after allo-HSCT, 10 μg/day i.p. days 0-13) was “no difference”. For the same molecule, the “thymic cellularity, IL-7 alone group versus control group” value (thymic cellularity; day 28 after allo-HSCT, IL-7 days 21-27) was “significantly higher than the control group”, the “effect of combination of IL-7 treatment and castration on thymic cellularity” value (thymic cellularity; day 28 after allogeneic HSCT) was “additive effect” and the “proliferative effect on murine cells” value [2] was “equal to murine IL-7”.

In the case of `CCNC(=O)[C@@H]1CCCN1C(=O)[C@H](CCCNC(=N)N)NC(=O)[C@H](CC(C)C)NC(=O)[C@@H](CC(C)C)NC(=O)[C@H](Cc1ccc(O)cc1)NC(=O)[C@H](CO)NC(=O)[C@H](Cc1c[nH]c2ccccc12)NC(=O)[C@H](Cc1c[nH]cn1)NC(=O)[C@@H]1CCC(=O)N1` [Lupron®, leuprolide acetate], the “hemagglutination-inhibition antibody titer versus prior to therapy” value [3] is reported as “higher hemagglutination-inhibition antibody titer”, the “patients with an increase in haemopoiesis (T cell analysis) and neutrophil count versus baseline” value [4] is reported as “approximately 70%” and the “results versus higher Lupron dosage (Group 2)” value ([5]; G-CSF plus low dose Lupron 11.25 mg (Group 3)) is reported as “not statistically different”. The “results versus Group 2” value ([5]; Lupron 22.5 mg on day 14 pre-chemotherapy (Group 4)) was “not statistically different”, the “duration of sex steroid ablation” value (sex steroids [6]) was “four months” and the “infection rates between the 2 groups” value ([7]; 3, 6 and 9 months from transplant) was “statistically different”. The “WBC counts, mean days of severe Neutropenia (ANC <500/mm^3) and febrile neutropenia versus non-treated group” value ([7]; up to day 21 from transplantation) was “clinically and statistically significant reduction” and the “incidence of viral and other infection rates between the two groups” value ([7]; up to month 1) was “not be statistically significant”.

For `CCNC(=O)[C@@H]1CCCN1C(=O)[C@H](CCCN=C(N)N)NC(=O)[C@H](CC(C)C)NC(=O)[C@@H](Cc1c[nH]c2ccccc12)NC(=O)[C@H](Cc1ccc(O)cc1)NC(=O)[C@H](CO)NC(=O)[C@H](Cc1c[nH]c2ccccc12)NC(=O)[C@H](Cc1cnc[nH]1)NC(=O)[C@@H]1CCC(=O)N1` [Deslorelin], the “additional time to decrease circulating sex steroid levels versus surgical castration” value [8] was “about 3 weeks”, the “rate of regeneration post-cyclophosphamide treatment compared to surgical castration” value ([8]; injected for four weeks) was “comparable rate of regeneration” and the “enhancing effects on thymic expansion and recovery of spleen and lymph node versus surgical castration” value ([8]; post-cyclophosphamide) was “equivalent”.

B1: G-CSF: granulocyte colony stimulating factor, Neupogen (Amgen) (protein, UniProt P09919 31-207, looked up)
Granulocyte …: TPLGPASSLPQSFLLKCLEQVRKIQGDGAALQEKLVSECATYKLCHPEELVLLGHSLGIPWAPLSSCPSQALQLAGCLSQLHSGLFLYQGLLQALEGISPELGPTLDTLQLDVADFATTIWQQMEELGMAPALQPTQGAMPAFASAFQRRAGGVLVASHLQSFLEVSYRVLRHLAQP
modifications: filgrastim, N-terminal Met
For B1, the neutrophils ([9]; other Phase I/II trials) is listed as “measurable increases in neutrophils” and the “incidence of infection (febrile neutropenia, infection rates, in-patient hospitalization, antibiotic use)” value ([9]; small cell lung cancer, 4-8 μg/kg/day s.c. days 4-17 after chemotherapy, placebo-controlled) is listed as “clinically and statistically significant decrease”.

B2: Neulasta®: Amgen product given as single SC dose on day 2 of each chemotherapy cycle; called GM-CSF in the text (protein, UniProt P09919 31-207, looked up)
Granulocyte …: B1 Granulocyte …
modifications: pegfilgrastim: PEGylated, N-terminal Met
notes: called GM-CSF in the text
For B2, the “rates of febrile Neutropenia” value ([9]; both studies) is given as 10-20% and the “mean days of severe Neutropenia” value ([9]; metastatic breast cancer, administered day 2 of chemotherapy cycle, both studies) is given as “approximately 1.7 days”.
